# From BindingDB's records for doi:10.7270/Q2TX3CSC (Vanderbilt Screening Center for GPCRs, Ion Channels and …, 2009)
# Target: T1, Solute carrier family 12 member 5 (Homo sapiens, UniProt Q9H2X9)
# T1 sequence (Q9H2X9 whole entry): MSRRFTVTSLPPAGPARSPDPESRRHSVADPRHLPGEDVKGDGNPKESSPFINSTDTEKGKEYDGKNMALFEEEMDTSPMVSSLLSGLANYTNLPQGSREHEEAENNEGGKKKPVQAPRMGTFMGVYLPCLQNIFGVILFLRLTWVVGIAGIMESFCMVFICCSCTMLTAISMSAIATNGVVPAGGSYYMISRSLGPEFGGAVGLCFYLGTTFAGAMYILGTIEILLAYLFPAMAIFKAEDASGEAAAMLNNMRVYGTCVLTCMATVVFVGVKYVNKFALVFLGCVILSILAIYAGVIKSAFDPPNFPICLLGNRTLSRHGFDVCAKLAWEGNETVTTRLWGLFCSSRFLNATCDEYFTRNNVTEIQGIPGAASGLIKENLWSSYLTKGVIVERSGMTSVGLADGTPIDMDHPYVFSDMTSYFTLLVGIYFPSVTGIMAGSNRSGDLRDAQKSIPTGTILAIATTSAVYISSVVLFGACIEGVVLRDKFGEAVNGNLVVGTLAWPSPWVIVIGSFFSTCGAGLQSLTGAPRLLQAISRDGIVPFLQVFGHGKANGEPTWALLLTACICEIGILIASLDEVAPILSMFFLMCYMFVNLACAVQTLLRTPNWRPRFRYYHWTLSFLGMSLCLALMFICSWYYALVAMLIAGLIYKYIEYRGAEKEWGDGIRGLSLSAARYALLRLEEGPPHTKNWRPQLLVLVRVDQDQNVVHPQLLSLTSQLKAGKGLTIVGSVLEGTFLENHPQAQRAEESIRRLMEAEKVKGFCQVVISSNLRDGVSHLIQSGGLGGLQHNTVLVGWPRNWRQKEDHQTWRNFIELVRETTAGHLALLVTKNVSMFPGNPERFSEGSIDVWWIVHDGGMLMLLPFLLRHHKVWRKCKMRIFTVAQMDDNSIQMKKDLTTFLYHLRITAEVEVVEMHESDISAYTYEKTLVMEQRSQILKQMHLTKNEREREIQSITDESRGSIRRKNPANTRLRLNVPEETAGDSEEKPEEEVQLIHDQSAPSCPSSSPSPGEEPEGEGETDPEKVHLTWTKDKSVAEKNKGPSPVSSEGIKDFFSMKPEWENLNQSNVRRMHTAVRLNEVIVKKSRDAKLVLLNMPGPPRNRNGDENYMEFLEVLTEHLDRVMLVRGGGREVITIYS
# Assay: concentration-response of KCC2 transport modulators – cell-based, HEK293 KCC2, FluoZin-2 fluorescence, dose response (AID 1736)
# Details: not given
row,Compound,EC50 [µM]
1,"CC1Cc2ccccc2N1C(=O)/C=C/c1cccc(F)c1 (stereo not drawn) [(E)-3-(3-fluorophenyl)-1-(2-methyl-2,3-dihydroindol-1-yl)-2-propen-1-one]",129
2,CCc1ccc(C(=O)COC(=O)c2cc([N+](=O)[O-])ccc2NCCO)cc1 [2-(2-hydroxyethylamino)-5-nitro-benzoic acid [2-(4-ethylphenyl)-2-keto-ethyl] ester],17.2
3,CCCC1=NN2C(=N)/C(=C\c3cc(C)n(-c4cc(C)cc(C)c4)c3C)C(=O)N=C2S1 [MLS000588586],6.75
4,"Cc1ccc(/C=C2/Sc3ccccc3N(CC(=O)NCCCOC(C)C)C2=O)cc1 [2-[(2E)-2-[(4-methylphenyl)methylidene]-3-oxidanylidene-1,4-benzothiazin-4-yl]-N-(3-propan-2-yloxypropyl)ethanamide]",964
5,"Cc1ccc(-c2csc(NC(=O)CCNC(=O)c3ccccc3Cl)n2)cc1 [2-chloranyl-N-[3-[[4-(4-methylphenyl)-1,3-thiazol-2-yl]amino]-3-oxidanylidene-propyl]benzamide]",2.49
6,"CCOc1[nH]n(-c2ccccc2)c(=O)c1C=Nc1ccc(F)cc1F [(4E)-4-[[[2,4-bis(fluoranyl)phenyl]amino]methylidene]-5-ethoxy-2-phenyl-pyrazol-3-one]",0.461
7,"COc1ccc(-n2cnnc2SCC(=O)Nc2cc(S(=O)(=O)N3CCCCC3)ccc2C)cc1 [2-[[4-(4-methoxyphenyl)-1,2,4-triazol-3-yl]sulfanyl]-N-(2-methyl-5-piperidin-1-ylsulfonyl-phenyl)ethanamide]",15.1
8,"Cc1ccc(Nc2nnc(SCC(=O)c3ccc(Br)s3)s2)c(C)c1 [1-(5-bromanylthiophen-2-yl)-2-[[5-[(2,4-dimethylphenyl)amino]-1,3,4-thiadiazol-2-yl]sulfanyl]ethanone]",2.31
9,"CC1Cc2ccccc2N1C(=O)CSc1nnc(CNc2ccccc2)o1 (stereo not drawn) [1-(2-Methyl-2,3-dihydro-indol-1-yl)-2-(5-phenylaminomethyl-[1,3,4]oxadiazol-2-ylsulfanyl)-ethanone]",0.941
10,O=C(c1ccc(S(=O)(=O)c2cccc(Cl)c2)c([N+](=O)[O-])c1)N1CCN(c2ccccn2)CC1 [1-{4-[(3-chlorophenyl)sulfonyl]-3-nitrobenzoyl}-4-pyridin-2-ylpiperazine],6.85
11,Cc1ccc2[nH]c(=O)c(CN(CCc3ccccc3)Cc3nnnn3CC3CCCO3)cc2c1 (stereo not drawn) [SMR000003177],4.26
12,O=C(NC(=S)NNC(=O)c1cnccn1)c1ccc(Cl)cc1 [4-Chloro-N-[N'-(pyrazine-2-carbonyl)-hydrazinocarbothioyl]-benzamide],23.3
13,"S=C(NCCc1ccccc1)NN=Cc1cccc(Cl)c1Cl [1-[(2,3-dichlorobenzylidene)amino]-3-phenethyl-thiourea]",47.6
14,"Cc1ccc(OCCC(=O)OCC(=O)N2c3ccccc3CC2C)cc1 (stereo not drawn) [3-(4-methylphenoxy)propanoic acid [2-(2-methyl-2,3-dihydroindol-1-yl)-2-oxoethyl] ester]",3.85
15,"CC(C)(CN=C(S)NCCc1ccccc1)CN=C(S)NCCc1ccccc1 [1-[2,2-dimethyl-3-(2-phenylethylcarbamothioylamino)propyl]-3-(2-phenylethyl)thiourea]",165
16,CCOc1cc(Br)ccc1S(=O)(=O)NCc1ccccc1 [4-bromanyl-2-ethoxy-N-(phenylmethyl)benzenesulfonamide],14.7
17,O=C(c1ccc(N2CCCCCC2)c([N+](=O)[O-])c1)N1CCc2ccccc21 [1-(4-azepan-1-yl-3-nitrobenzoyl)indoline],0.373
18,"COc1cc(C(=S)N2CCOCC2)cc(OC)c1OC(=O)Cc1ccccc1 [(2,6-dimethoxy-4-morpholin-4-ylcarbothioyl-phenyl) 2-phenylethanoate]",0.81
19,"COc1ccc(-c2nnc(S/C(=C/c3ccc(Cl)cc3)C(=O)O)o2)cc1 [(E)-3-(4-chlorophenyl)-2-[[5-(4-methoxyphenyl)-1,3,4-oxadiazol-2-yl]sulfanyl]prop-2-enoic acid]",0.287

row,Compound,EC50 [µM]
1,"O=C(NCc1ccc2c(c1)OCO2)c1ccc(COc2cc(Cl)ccc2Cl)o1 [5-[(2,5-dichlorophenoxy)methyl]-N-piperonyl-2-furamide]",6.14
2,Cc1onc(-c2ccccc2Cl)c1C(=O)NC(=S)Nc1ccc(C(C)C)cc1 [3-(2-chlorophenyl)-5-methyl-N-(p-cumenylthiocarbamoyl)isoxazole-4-carboxamide],0.271
3,COc1cc(C=NN(C)c2ccccc2)ccc1O,23.8
4,"O=C(CSc1nnc(-c2ccc(F)cc2)o1)N1CCN(C(=O)c2ccco2)CC1 [2-[5-(4-Fluoro-phenyl)-[1,3,4]oxadiazol-2-ylsulfanyl]-1-[4-(furan-2-carbonyl)-piperazin-1-yl]-ethanone]",7.01
5,CCCCNc1cc(C(=O)O)cc(S(N)(=O)=O)c1Oc1ccccc1 [Fordiuran],4.69e-05
6,"O=C(OCn1ncc(Cl)c(Cl)c1=O)c1ccc(F)cc1 [(4,5-dichloro-6-oxopyridazin-1-yl)methyl 4-fluorobenzoate]",14.1
7,Cc1ccc(NC(=O)c2ccccc2NS(=O)(=O)c2ccc(Cl)s2)cc1 [2-[(5-chloranylthiophen-2-yl)sulfonylamino]-N-(4-methylphenyl)benzamide],1.17
8,"COc1cccc(C=c2sc(=CC(=O)c3ccc(C)cc3)[nH]c2=O)c1OC [5-[(2,3-dimethoxyphenyl)methylidene]-2-[2-(4-methylphenyl)-2-oxidanylidene-ethylidene]-1,3-thiazolidin-4-one]",15.5
9,"O=S1(=O)N=C(N2CCN(Cc3ccccc3)CC2)c2ccccc21 [3-(4-Benzyl-piperazin-1-yl)-benzo[d]isothiazole 1,1-dioxide]",6.74
10,O=C(COC(=O)c1cc([N+](=O)[O-])ccc1NCc1ccccc1)NC1CCCCC1 [2-(benzylamino)-5-nitro-benzoic acid [2-(cyclohexylamino)-2-keto-ethyl] ester],0.651
11,N#Cc1ccccc1NC(=O)CSc1nccn1CCc1ccccc1 [MLS000051858],3.24
12,"O=c1c2ccccc2c(-c2nnc(S)o2)nn1Cc1ccccc1 [2-(phenylmethyl)-4-(2-sulfanylidene-3H-1,3,4-oxadiazol-5-yl)-1-phthalazinone]",2.98
13,Cc1nn(-c2nc3ccccc3[nH]2)c(N)c1-c1ccccc1 [MLS000063763],21.3
14,"COc1cc(OC)c(C2=NOC(C(=O)N3CCc4ccccc4C3)C2)cc1Cl (stereo not drawn) [2-{[3-(5-chloro-2,4-dimethoxyphenyl)-4,5-dihydro-5-isoxazolyl]carbonyl}-1,2,3,4-tetrahydroisoquinoline]",6.59
15,Cn1c(C(=O)NCCN2CCN(c3ccccc3F)CC2)cc2c(=O)n(C)c3ccccc3c21 [MLS000118132],3.19
16,N#Cc1nc(Cc2cccc3ccccc23)oc1NCCN1CCOCC1 [5-(2-Morpholin-4-yl-ethylamino)-2-naphthalen-1-ylmethyl-oxazole-4-carbonitrile],5.4
17,"Cc1ccc(/C=C2\SC(=S)N(/N=C/C3C=C([N+](=O)[O-])C=CC3=O)C2=O)o1 (stereo not drawn) [(5Z)-5-[(5-methylfuran-2-yl)methylidene]-3-[[(E)-(3-nitro-6-oxocyclohexa-2,4-dien-1-ylidene)methyl]amino]-2-sulfanylidene-1,3-thiazolidin-4-one]",11.8
18,"CN(C)S(=O)(=O)c1cccc(NC(=O)c2cc3c(cc2Cl)N2CCCCC=C2NS3(=O)=O)c1 [2-chloranyl-N-[3-(dimethylsulfamoyl)phenyl]-5,5-bis(oxidanylidene)-8,9,10,11-tetrahydro-7H-azepino[2,1-c][1,2,4]benzothiadiazine-3-carboxamide]",281

# Same assay, conditions: inactive by the depositor's call
row,Compound,EC50 [µM]
1,"Cc1nc2c(-c3ccc(Cl)cc3)c(C)[nH]n2c(=O)c1Cc1ccccc1 [6-benzyl-3-(4-chlorophenyl)-2,5-dimethylpyrazolo[1,5-a]pyrimidin-7(4H)-one]",43.9
2,CN(c1ccccc1)c1ccc(/C=C(\CCC(=O)O)c2nc3ccccc3s2)cc1[N+](=O)[O-],8.17
3,COc1cc(-c2nnc(CSc3nnc(Nc4ccc(C(C)C)cc4)s3)o2)cc(OC)c1OC [MLS000391281],2.2
4,"Cc1nc(CC(=O)Nc2nc(-c3ccccc3)cs2)cs1 [2-(2-methyl-1,3-thiazol-4-yl)-N-(4-phenyl-1,3-thiazol-2-yl)acetamide]",1.81
5,"CCOc1ccccc1CNC(=O)C1CCN(c2nc3ccccc3o2)CC1 [1-(1,3-benzoxazol-2-yl)-N-(2-ethoxybenzyl)isonipecotamide]",95.9
6,"Cc1ccc(CN(C)C(=O)c2cc(COc3ccc(F)cc3Cl)on2)o1 [5-[(2-chloranyl-4-fluoranyl-phenoxy)methyl]-N-methyl-N-[(5-methylfuran-2-yl)methyl]-1,2-oxazole-3-carboxamide]",89.2
